Assay results as given in US20100292316A1, “IMPROVED THERAPEUTIC METHODS AND COMPOSITIONS COMPRISING CHROMAN RING COMPOUNDS” (Research Development Foundation, priority 2007, published 2010).

Experiments:
Akt = experiment: Western blot of phosphorylated Akt (Ser 473) and total Akt in prostate cancer cells; assay type: cell-based, human
Text: Previous studies have shown that α-TEA is an effective inducer of apoptosis in human prostate cancer cells (Anderson et al., 2004). Dose- and time-dependent pro-apoptotic effects of α-TEA in prostate cancer cells are mediated by Fas/FADD/caspase-8/tBid and Fas/Daxx/Ask1/JNK1/2/Bax, leading to activation of caspases-9 and -3. Thus, the Akt inhibiting activity of α-TEA was investigated in prostate cancer cells. Since phosphorylation of Akt at Ser 473 is required for its full activation (Cheng et al., 2005), we examined the phosphorylation status of Akt using an antibody that specifically recognizes Akt phosphorylated at Ser 473 in all three Akt isoforms (Upstate Cell Signaling Solutions (Charlottesville, Va.)). α-TEA decreased the levels of the phosphorylated forms of Akt. […] As verification that the decreases in phosphorylation status of Akt correlated with decreased kinase activity, the phosphorylation status of GSK3β, a downstream Akt target, was evaluated following α-TEA treatments. […] GAPDH levels were assayed with each immunoblot assay as a protein loading control.
Since Akt has three isoforms; namely, Akt1, Akt2, and Akt3, it was of interest to determine if α-TEA treatment was reducing the phosphorylated status of all three isoforms. Following α-TEA treatment the three Akt isoforms were immunoprecipitated with isoform specific antibodies, followed by western immunoblotting analyses using antibody specific for phospho-Akt. The protein levels of the isoforms were also determined. […] Treatment diminished the phosphorylation levels in all three Akt isoforms in both LNCaP and PC-3-GFP cells.
1×10^7 LNCaP or PC-3 3-GFP cells were treated with α-TEA and lysed in RIPA lysis buffer in the presence of protease inhibitors. […] Beads were washed 4 times with PBS and the proteins were released from the beads by boiling in Laemmli buffer for 5 min. Immunoprecipitated proteins were identified by SDS-PAGE followed by western immunoblot analyses.
Since Akt is activated, at least in part, by PI3K, we were interested to see if blockage of PI3K activity using the PI3K inhibitor LY294002 (Calbiochem-Novabiochem Corp. (San Diego, Calif.)) (Vlahos et al., 1994) would augment the apoptotic response induced by α-TEA.

LNCaP cells = experiment: Apoptosis by DAPI staining, LNCaP; assay type: cell-based, human
Method: Cells were plated at 2×10^6 in 100 mm cell culture plates, cultured overnight and washed with serum free media before transfection. Plasmids (0.7 μg or 4.2 of μg) or empty vector (pcDNA3) were mixed with 50 μl or 300 μl serum free media and 4 μl or 24 μl PLUS reagent (Invitrogen, CA) and incubated for 15 min at room temperature. Next 2 μl or 12 μl of Lipofectamine reagent (Invitrogen, CA) in 50 μl or 300 μl serum free media were added and the mixture incubated for another 15 min before adding to the cells in 0.5 ml or 5 ml serum free media. Cells were incubated with transfection reagents for 3 h and the growth media containing 2×FBS was added to the cells. Transfected cells were cultured overnight before α-TEA treatment. Transfection efficiency was determined to be 70% using GFP expressing plasmid.
Assessment of apoptosis based on nuclear morphology using 4′, 6-diamidino-2-phenylindole dihydrochloride (DAPI; Boehringer Mannheim Corp. Indianapolis, Ind.) has been described previously (Yu et al., 2003; Israel et al., 2000). Briefly, 1.5×10^5/well LNCaP or PC-3-GFP cells were plated in 12-well tissue culture plates and cultured overnight to allow cells to attach. On the next day, cells were treated with various concentrations of α-TEA and incubated for various time periods. At the end of treatments, cells were collected, washed with PBS, stained with 25 μl of 2 μg/ml DAPI, and viewed under a fluorescent microscope (model ICM 405 with a model 487701 filter, Zeiss). Cells which contained clearly condensed chromatin or fragmented nuclei were scored as apoptotic cells. ≧500 cells were counted in each sample. Apoptotic data are presented as percentage of apoptotic cells±S.D. for three independent experiments.
FOXO1 siRNA used in the study was purchased from Santa Cruz (Santa Cruz, Calif.). […] Transfection of human prostate cancer cells with FOXO1 siRNA or negative control siRNA was performed in 100 mm cell culture dishes at a density of 2×10^6 cells/dish using Lipofectamine 2000 (Invitrogen, Carlsbad, Calif.) and 300 pmol of siRNA duplex, resulting in a final siRNA concentration of 30 nM. siRNA transfected cells were incubated for 48-72 h prior to α-TEA treatment.

SMILES: Cc1c(C)c2c(c(C)c1OCC(=O)O)CC[C@@](C)(CCC[C@H](C)CCC[C@H](C)CCCC(C)C)O2 [α-TEA]
- phosphorylation levels of Akt1, Akt2, Akt3 isoforms (immunoprecipitation) (Akt; LNCaP and PC-3-GFP cells, 40 μM α-TEA, 24 h): markedly reduced
- effect on level of Akt protein expression (Akt; LNCaP and PC-3-GFP cells, any time point): no major effect
- inhibition of levels of endogenously phosphorylated Akt (Akt; LNCaP cells, 10 μM α-TEA and/or 10 μM LY294002): 40%
- reduction of phosphorylated forms of Akt (Akt; LNCaP cells, 40 μM α-TEA, 24 h): 90%
- inhibition of levels of endogenously phosphorylated Akt (Akt; PC-3-GFP cells, 20 μM α-TEA and/or 10 μM LY294002): 70%
- reduction of phosphorylated forms of Akt (Akt; PC-3-GFP cells, 40 μM α-TEA, 24 h): 70%
- decrease in percentage of apoptotic cells in cells expressing constitutively active Akt1 vs empty vector (LNCaP cells; 15 μM α-TEA): 21%
- decrease in percentage of apoptotic cells in cells expressing constitutively active Akt1 vs empty vector (LNCaP cells; 20 μM α-TEA): 24%
- decrease in percentage of apoptotic cells in cells expressing constitutively active Akt2 vs empty vector (LNCaP cells; 20 μM α-TEA): 10%
- α-TEA-induced apoptosis on overexpression of wild type or constitutively active FOXO1 (LNCaP cells; 40 μM α-TEA 15 h, P<0.009): increased
